Assay results: paper PMC5218480 (PLoS ONE, 2017)

System: MV-4-11 cells
Assay: Gene expression microarray analysis (Affymetrix PrimeView) and GSEA
Assay type: cell-based, human
Set-up: RFU PODN (11730768_x_at) / Fold change /veh PODN (11730768_x_at) / RFU LINC00158 (11744669_a_at) / Fold change /veh LINC00158 (11744669_a_at) / RFU DUSP10 (11751237_a_at) / Fold change /veh DUSP10 (11751237_a_at) / RFU ID3 (11757404_x_at) / Fold change /veh ID3 (11757404_x_at) / RFU PLEKHG5 (11737974_s_at) / Fold change /veh PLEKHG5 (11737974_s_at) / RFU LRRC4B (11730491_at) / Fold change /veh LRRC4B (11730491_at) / RFU GIMAP4 (11747438_a_at) / Fold change /veh GIMAP4 (11747438_a_at) / RFU KRT8 (11758183_x_at) / Fold change /veh KRT8 (11758183_x_at) / RFU CNN1 (11734310_a_at) / Fold change /veh CNN1 (11734310_a_at) / RFU VPS37D (11726825_at) / Fold change /veh VPS37D (11726825_at) / RFU C10orf10 (11716522_x_at) / Fold change /veh C10orf10 (11716522_x_at) / RFU KIR2DL2 /// KIR2DL4 /// KIR2DL5A /// KIR2DL5B /// KIR2DS1 /// KIR2DS2 /// KIR2DS3 /// KIR2DS4 /// KIR3DL3 /// KIR3DL3 /// KIR3DS1 (11738374_at) / Fold change /veh KIR2DL2 /// KIR2DL4 /// KIR2DL5A /// KIR2DL5B /// KIR2DS1 /// KIR2DS2 /// KIR2DS3 /// KIR2DS4 /// KIR3DL3 /// KIR3DL3 /// KIR3DS1 (11738374_at) / RFU C1QL1 (11718748_at) / Fold change /veh C1QL1 (11718748_at) / RFU TMPRSS4 (11747572_a_at) / Fold change /veh TMPRSS4 (11747572_a_at) / RFU HAMP (11756126_x_at) / Fold change /veh HAMP (11756126_x_at) / RFU RNFT2 (11725882_a_at) / Fold change /veh RNFT2 (11725882_a_at) / RFU NR4A2 (11747474_a_at) / Fold change /veh NR4A2 (11747474_a_at) / RFU ABCC12 (11746883_a_at) / Fold change /veh ABCC12 (11746883_a_at) / RFU TMEM136 (11760407_x_at) / Fold change /veh TMEM136 (11760407_x_at) / RFU CLDN22 /// WWC2 (11732394_at) / Fold change /veh CLDN22 /// WWC2 (11732394_at) / RFU HLA-DPB1 (11760878_x_at) / Fold change /veh HLA-DPB1 (11760878_x_at) / RFU SPINT1 (11716480_a_at) / Fold change /veh SPINT1 (11716480_a_at) / RFU GAP43 (11754022_s_at) / Fold change /veh GAP43 (11754022_s_at) / RFU A4GNT (11735810_at) / Fold change /veh A4GNT (11735810_at) / RFU PRB3 (11715151_x_at) / Fold change /veh PRB3 (11715151_x_at) / RFU TUBB4B (11761932_at) / Fold change /veh TUBB4B (11761932_at) / RFU CAPN14 (11732068_a_at) / Fold change /veh CAPN14 (11732068_a_at) / RFU TMCC2 (11721928_a_at) / Fold change /veh TMCC2 (11721928_a_at) / RFU IRGQ (11745062_a_at) / Fold change /veh IRGQ (11745062_a_at) / RFU FAM174B (11720279_a_at) / Fold change /veh FAM174B (11720279_a_at) / RFU TMPRSS4 (11748680_a_at) / Fold change /veh TMPRSS4 (11748680_a_at) / RFU FAM212B (11763350_a_at) / Fold change /veh FAM212B (11763350_a_at) / RFU PLEKHG5 (11743358_a_at) / Fold change /veh PLEKHG5 (11743358_a_at) / RFU ZSCAN30 (11745921_a_at) / Fold change /veh ZSCAN30 (11745921_a_at) / RFU CMKLR1 (11741424_a_at) / Fold change /veh CMKLR1 (11741424_a_at) / RFU LOC101060620 /// MAPK8IP1 (11723275_at) / Fold change /veh LOC101060620 /// MAPK8IP1 (11723275_at) / RFU SPTSSB (11747773_x_at) / Fold change /veh SPTSSB (11747773_x_at) / RFU PRSS12 (11739890_at) / Fold change /veh PRSS12 (11739890_at) / RFU BIN1 (11741810_x_at) / Fold change /veh BIN1 (11741810_x_at) / RFU WNT11 (11732464_a_at) / Fold change /veh WNT11 (11732464_a_at) / RFU C10orf10 (11716521_a_at) / Fold change /veh C10orf10 (11716521_a_at) / RFU C5orf56 (11738089_at) / Fold change /veh C5orf56 (11738089_at) / RFU CYB561 (11721691_x_at) / Fold change /veh CYB561 (11721691_x_at) / RFU ANKRD19P (11752326_a_at) / Fold change /veh ANKRD19P (11752326_a_at) / RFU OR2T12 /// OR2T33 /// OR2T8 (11738714_s_at) / Fold change /veh OR2T12 /// OR2T33 /// OR2T8 (11738714_s_at) / RFU VCAN (11748164_a_at) / Fold change /veh VCAN (11748164_a_at) / RFU JSRP1 (11732532_at) / Fold change /veh JSRP1 (11732532_at) / RFU KRTAP10-11 (11738290_x_at) / Fold change /veh KRTAP10-11 (11738290_x_at) / RFU MYO3A (11730013_a_at) / Fold change /veh MYO3A (11730013_a_at) / RFU EBF3 (11725865_a_at) / Fold change /veh EBF3 (11725865_a_at) / RFU CAMK2N1 (11719241_x_at) / Fold change /veh CAMK2N1 (11719241_x_at) / RFU C5orf56 (11738088_a_at) / Fold change /veh C5orf56 (11738088_a_at) / RFU OLFML3 (11715873_a_at) / Fold change /veh OLFML3 (11715873_a_at) / RFU LOC100653217 /// NTM (11731650_a_at) / Fold change /veh LOC100653217 /// NTM (11731650_a_at) / RFU MAPK11 (11762145_a_at) / Fold change /veh MAPK11 (11762145_a_at) / RFU FIZ1 (11724087_x_at) / Fold change /veh FIZ1 (11724087_x_at) / RFU OASL (11726364_x_at) / Fold change /veh OASL (11726364_x_at) / RFU SOX15 (11748057_x_at) / Fold change /veh SOX15 (11748057_x_at) / RFU CD79A (11719716_a_at) / Fold change /veh CD79A (11719716_a_at) / RFU HIST1H1D (11736915_at) / Fold change /veh HIST1H1D (11736915_at) / RFU CASKIN2 (11723855_a_at) / Fold change /veh CASKIN2 (11723855_a_at) / RFU LOC730098 (11760151_x_at) / Fold change /veh LOC730098 (11760151_x_at) / RFU OR4N2 (11742367_at) / Fold change /veh OR4N2 (11742367_at) / RFU PRRT2 (11749266_a_at) / Fold change /veh PRRT2 (11749266_a_at) / RFU SNX32 (11753110_a_at) / Fold change /veh SNX32 (11753110_a_at) / RFU CDHR5 (11726645_a_at) / Fold change /veh CDHR5 (11726645_a_at) / RFU RCAN1 (11760418_a_at) / Fold change /veh RCAN1 (11760418_a_at) / RFU FAM167A (11723789_a_at) / Fold change /veh FAM167A (11723789_a_at) / RFU FAM26E (11764081_at) / Fold change /veh FAM26E (11764081_at) / RFU ISYNA1 (11749810_s_at) / Fold change /veh ISYNA1 (11749810_s_at) / RFU ACY1 (11761880_at) / Fold change /veh ACY1 (11761880_at) / RFU 11764098_at / Fold change /veh 11764098_at / RFU SAMD14 (11745864_x_at) / Fold change /veh SAMD14 (11745864_x_at) / RFU NPB (11741838_a_at) / Fold change /veh NPB (11741838_a_at) / RFU TMPRSS6 (11731388_a_at) / Fold change /veh TMPRSS6 (11731388_a_at) / RFU KRTAP10-2 (11738614_at) / Fold change /veh KRTAP10-2 (11738614_at) / RFU ARHGAP8 /// PRR5-ARHGAP8 (11727945_x_at) / Fold change /veh ARHGAP8 /// PRR5-ARHGAP8 (11727945_x_at) / RFU KRTAP5-7 /// NADSYN1 (11734609_at) / Fold change /veh KRTAP5-7 /// NADSYN1 (11734609_at) / RFU RASL12 (11751679_a_at) / Fold change /veh RASL12 (11751679_a_at) / RFU CDKN2B (11736163_a_at) / Fold change /veh CDKN2B (11736163_a_at) / RFU PRF1 (11729649_at) / Fold change /veh PRF1 (11729649_at) / RFU, ZNF638 /// ZNF638-IT1 / Fold change vs veh, ZNF638 /// ZNF638-IT1 / RFU, PANK3 / Fold change vs veh, PANK3 / RFU, SH3YL1 / Fold change vs veh, SH3YL1 / RFU, ZEB2 / Fold change vs veh, ZEB2 / RFU, NRIP1 / Fold change vs veh, NRIP1 / RFU, PTTG1IP / Fold change vs veh, PTTG1IP / RFU, CAPN2 / Fold change vs veh, CAPN2 / RFU, MED14 / Fold change vs veh, MED14 / RFU, SNORA58 / Fold change vs veh, SNORA58 / RFU, C1orf63 / Fold change vs veh, C1orf63 / RFU, LRRFIP1 / Fold change vs veh, LRRFIP1 / RFU, NDUFAF7 / Fold change vs veh, NDUFAF7 / RFU, SLC12A2 / Fold change vs veh, SLC12A2 / RFU, IBTK / Fold change vs veh, IBTK / RFU, ESF1 / Fold change vs veh, ESF1 / Fold change vs veh, TMEM50B / RFU, TAOK1 / Fold change vs veh, TAOK1 / RFU, ACBD3 / Fold change vs veh, ACBD3 / RFU, TMA16 / Fold change vs veh, TMA16 / RFU, RWDD3 / Fold change vs veh, RWDD3 / RFU, BCAT1 / Fold change vs veh, BCAT1 / RFU, EDEM3 / Fold change vs veh, EDEM3 / RFU, TMEM33 / Fold change vs veh, TMEM33 / RFU, WDR75 / Fold change vs veh, WDR75 / RFU, AHCTF1 / Fold change vs veh, AHCTF1 / RFU, TFRC / Fold change vs veh, TFRC / RFU, ZDHHC17 / Fold change vs veh, ZDHHC17 / RFU, NOM1 / Fold change vs veh, NOM1 / RFU, ARL8B / Fold change vs veh, ARL8B / RFU, ZBTB11 / Fold change vs veh, ZBTB11 / RFU, TAMM41 / Fold change vs veh, TAMM41 / RFU, KIAA1704 /// LOC100996395 / Fold change vs veh, KIAA1704 /// LOC100996395 / RFU, ING1 / Fold change vs veh, ING1 / RFU, TRMT61B / Fold change vs veh, TRMT61B / RFU, FUBP3 / Fold change vs veh, FUBP3 / RFU, TP53 / Fold change vs veh, TP53 / RFU, TNKS2 / Fold change vs veh, TNKS2 / RFU, ZFP14 / Fold change vs veh, ZFP14 / RFU, ACTR2 / Fold change vs veh, ACTR2 / RFU, PPP3R1 / Fold change vs veh, PPP3R1 / RFU, PIK3R1 / Fold change vs veh, PIK3R1 / RFU, HNRNPA1 / Fold change vs veh, HNRNPA1 / RFU, RNF170 / Fold change vs veh, RNF170 / RFU, ZNF28 / Fold change vs veh, ZNF28 / RFU, RNGTT / Fold change vs veh, RNGTT / RFU, OGT / Fold change vs veh, OGT / RFU, BRD1 / Fold change vs veh, BRD1 / RFU, MARS / Fold change vs veh, MARS / RFU, ZNF655 / Fold change vs veh, ZNF655 / RFU, FAHD1 / Fold change vs veh, FAHD1 / RFU, BDP1 / Fold change vs veh, BDP1 / RFU, LRRCC1 / Fold change vs veh, LRRCC1 / RFU, ARID1A / Fold change vs veh, ARID1A / RFU, ZNF146 / Fold change vs veh, ZNF146 / RFU, ZNF330 / Fold change vs veh, ZNF330 / RFU, GPN3 / Fold change vs veh, GPN3 / RFU, C9orf123 / Fold change vs veh, C9orf123 / RFU, N4BP2L2 / Fold change vs veh, N4BP2L2 / RFU, ARFIP1 / Fold change vs veh, ARFIP1 / RFU, FAM179B / Fold change vs veh, FAM179B / RFU, BCL10 / Fold change vs veh, BCL10 / RFU, UHRF1BP1L / Fold change vs veh, UHRF1BP1L / RFU, BET1 / Fold change vs veh, BET1 / RFU, CNOT2 / Fold change vs veh, CNOT2 / RFU, ZNF268 / Fold change vs veh, ZNF268 / Fold change vs veh, ZNF507 / RFU, DGCR2 / Fold change vs veh, DGCR2 / RFU, WDSUB1 / Fold change vs veh, WDSUB1 / Fold change vs veh, HSP90B1 /// MIR3652 / RFU, ADSS / Fold change vs veh, ADSS / RFU, GK / Fold change vs veh, GK / RFU, ZNF148 / Fold change vs veh, ZNF148 / RFU, TAF9 / Fold change vs veh, TAF9 / RFU, SLC1A5 / Fold change vs veh, SLC1A5 / RFU, SLMO2 / Fold change vs veh, SLMO2 / RFU, ABCC4 / Fold change vs veh, ABCC4 / RFU, LOC101060439 /// RAP1B / Fold change vs veh, LOC101060439 /// RAP1B / RFU, RFX7 / Fold change vs veh, RFX7 / RFU, GTPBP10 / Fold change vs veh, GTPBP10 / RFU, CNEP1R1 / Fold change vs veh, CNEP1R1 / RFU, BIVM-ERCC5 /// ERCC5 / Fold change vs veh, BIVM-ERCC5 /// ERCC5 / RFU, ILF3 / Fold change vs veh, ILF3 / RFU 11762660_at / Fold change /veh 11762660_at / RFU VCAN (11757783_s_at) / Fold change /veh VCAN (11757783_s_at) / RFU DDX43 (11728927_at) / Fold change /veh DDX43 (11728927_at) / RFU KRT8 (11758188_x_at) / Fold change /veh KRT8 (11758188_x_at) / RFU NKD1 (11759106_at) / Fold change /veh NKD1 (11759106_at) / RFU SRD5A1 (11742802_a_at) / Fold change /veh SRD5A1 (11742802_a_at) / RFU TPSAB1 /// TPSB2 (11721975_s_at) / Fold change /veh TPSAB1 /// TPSB2 (11721975_s_at) / RFU GSTM3 (11746129_a_at) / Fold change /veh GSTM3 (11746129_a_at) / RFU IL23R (11737362_x_at) / Fold change /veh IL23R (11737362_x_at) / RFU TMEM51 (11727254_a_at) / Fold change /veh TMEM51 (11727254_a_at) / RFU PIWIL2 (11732686_x_at) / Fold change /veh PIWIL2 (11732686_x_at) / RFU ORM1 (11744905_x_at) / Fold change /veh ORM1 (11744905_x_at) / RFU CCDC152 (11743942_at) / Fold change /veh CCDC152 (11743942_at) / RFU ECM1 (11717891_a_at) / Fold change /veh ECM1 (11717891_a_at) / RFU IL23R (11748794_a_at) / Fold change /veh IL23R (11748794_a_at) / RFU TNFAIP8L3 (11732012_x_at) / Fold change /veh TNFAIP8L3 (11732012_x_at) / RFU MBOAT4 (11741988_at) / Fold change /veh MBOAT4 (11741988_at) / RFU 11764193_at / Fold change /veh 11764193_at / RFU TMEM53 (11763286_at) / Fold change /veh TMEM53 (11763286_at) / RFU MAGEB2 (11727129_at) / Fold change /veh MAGEB2 (11727129_at) / RFU TMEM200A (11744735_a_at) / Fold change /veh TMEM200A (11744735_a_at) / RFU CCDC152 (11751479_a_at) / Fold change /veh CCDC152 (11751479_a_at) / RFU FAM211A (11726209_a_at) / Fold change /veh FAM211A (11726209_a_at) / RFU RGS16 (11746705_a_at) / Fold change /veh RGS16 (11746705_a_at) / RFU VCAN (11755009_s_at) / Fold change /veh VCAN (11755009_s_at) / RFU RHOB (11743442_s_at) / Fold change /veh RHOB (11743442_s_at) / RFU RGS16 (11720943_a_at) / Fold change /veh RGS16 (11720943_a_at) / RFU RGS16 (11720944_at) / Fold change /veh RGS16 (11720944_at) / RFU, VPS4B / Fold change vs veh, VPS4B / RFU, CREB1 / Fold change vs veh, CREB1 / RFU, DNAJC13 / Fold change vs veh, DNAJC13 / RFU, GNAQ / Fold change vs veh, GNAQ / RFU, CDK5R1 / Fold change vs veh, CDK5R1 / RFU, ZRANB3 / Fold change vs veh, ZRANB3 / RFU, CUL4A / Fold change vs veh, CUL4A / RFU, CCNY / Fold change vs veh, CCNY / RFU, UFL1 / Fold change vs veh, UFL1 / RFU, COG3 / Fold change vs veh, COG3 / RFU, DIAPH2 / Fold change vs veh, DIAPH2 / RFU, SKA2 / Fold change vs veh, SKA2 / RFU, AFF3 / Fold change vs veh, AFF3 / RFU, LMF1 / Fold change vs veh, LMF1 / RFU, IPO11 / Fold change vs veh, IPO11 / RFU, DFFB / Fold change vs veh, DFFB / RFU, FOXP1 / Fold change vs veh, FOXP1 / RFU, CARD8 / Fold change vs veh, CARD8 / RFU, STRN3 / Fold change vs veh, STRN3 / RFU, ADK / Fold change vs veh, ADK / RFU, RASSF2 / Fold change vs veh, RASSF2 / RFU, WIPF1 / Fold change vs veh, WIPF1 / RFU, LARP1B / Fold change vs veh, LARP1B / RFU, RASA1 / Fold change vs veh, RASA1 / RFU, RB1 / Fold change vs veh, RB1 / RFU, PPFIA1 / Fold change vs veh, PPFIA1 / RFU, MAT2A / Fold change vs veh, MAT2A / RFU, CCT5 / Fold change vs veh, CCT5 / RFU, WDR92 / Fold change vs veh, WDR92 / RFU, CUX1 / Fold change vs veh, CUX1 / RFU, TTC7A / Fold change vs veh, TTC7A / RFU, TMEM135 / Fold change vs veh, TMEM135 / RFU, DEPTOR / Fold change vs veh, DEPTOR / RFU, CPM / Fold change vs veh, CPM / RFU, DNAJB6 / Fold change vs veh, DNAJB6 / RFU, CACNA2D3 / Fold change vs veh, CACNA2D3 / RFU, DTX4 / Fold change vs veh, DTX4 / RFU, TFCP2 / Fold change vs veh, TFCP2 / RFU, GMCL1 /// GMCL1P1 / Fold change vs veh, GMCL1 /// GMCL1P1 / RFU, AEBP2 / Fold change vs veh, AEBP2 / RFU, SNHG1 /// SNORD22 /// SNORD25 /// SNORD26 /// SNORD27 /// SNORD28 /// SNORD29 /// SNORD31 / Fold change vs veh, SNHG1 /// SNORD22 /// SNORD25 /// SNORD26 /// SNORD27 /// SNORD28 /// SNORD29 /// SNORD31 / Fold change (Aza/veh), C12orf56 (ProbeSet 11735607_a_at) / Fold change (ACY-1035/veh), C12orf56 (ProbeSet 11735607_a_at) / Fold change (Aza/veh), FGFR1OP (ProbeSet 11751329_s_at) / Fold change (ACY-1035/veh), FGFR1OP (ProbeSet 11751329_s_at) / Fold change (Aza/veh), VPS36 (ProbeSet 11739960_a_at) / Fold change (ACY-1035/veh), VPS36 (ProbeSet 11739960_a_at) / RFU SYPL1 (11715823_x_at) / Fold change /veh SYPL1 (11715823_x_at) / RFU IGFBP7 (11715501_s_at) / Fold change /veh IGFBP7 (11715501_s_at) / RFU REEP3 (11722064_at) / Fold change /veh REEP3 (11722064_at) / RFU IGLL1 (11728026_x_at) / Fold change /veh IGLL1 (11728026_x_at): dose or concentration left out as unconfirmed
Conditions: ProbeSet 11723944_a_at; LIST B

## Nc1ncn([C@@H]2O[C@H](CO)[C@@H](O)[C@H]2O)c(=O)n1 [azacitidine]
  Fold change vs veh, PTTG1IP: 0.86
